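Cultured in 96-well plates, cells were exposed to test compound for 48 hours across five concentrations. GI50: concentration for 50% inhibition of growth.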 The source made the active and inactive calls. Rule as the data show it: active = GI50 up to about 1.1 µM and inactive = higher.
Key:
Experiment in all cases: NCI-60 cell line screen, 48 h
A498 = system: A498
EKVX = system: EKVX
SF-268 = system: SF-268
MDA-MB-435 = system: MDA-MB-435
NCI-H23 = system: NCI-H23
HOP-92 = system: HOP-92
UACC-62 = system: UACC-62
RXF 393 = system: RXF 393
OVCAR-4 = system: OVCAR-4
COLO 205 = system: COLO 205
SW-620 = system: SW-620
UO-31 = system: UO-31
SF-539 = system: SF-539
BT-549 = system: BT-549
HT-29 = system: HT-29
SK-MEL-2 = system: SK-MEL-2
SNB-19 = system: SNB-19
NCI/ADR-RES = system: NCI/ADR-RES
HCT-116 = system: HCT-116
SNB-75 = system: SNB-75
MCF7 = system: MCF7
SK-OV-3 = system: SK-OV-3
SF-295 = system: SF-295
NCI-H460 = system: NCI-H460
OVCAR-3 = system: OVCAR-3
SK-MEL-5 = system: SK-MEL-5
Hs-578T = system: Hs-578T
HL-60 = system: HL-60
RPMI-8226 = system: RPMI-8226
A549 = system: A549
KM12 = system: KM12
ACHN = system: ACHN
LOX IMVI = system: LOX IMVI
UACC-257 = system: UACC-257
T47D = system: T47D
HOP-62 = system: HOP-62
TK-10 = system: TK-10
IGROV-1 = system: IGROV-1
786-0 = system: 786-0
U-251 = system: U-251
NCI-H226 = system: NCI-H226
M14 = system: M14
CCRF-CEM = system: CCRF-CEM
HCT-15 = system: HCT-15
MDA-N = system: MDA-N
SN12C = system: SN12C
K562 = system: K562
OVCAR-5 = system: OVCAR-5
OVCAR-8 = system: OVCAR-8
MOLT-4 = system: MOLT-4
SK-MEL-28 = system: SK-MEL-28
Malme-3M = system: Malme-3M
PC-3 = system: PC-3
MDA-MB-231 = system: MDA-MB-231
DU-145 = system: DU-145
NCI-H522 = system: NCI-H522
CAKI-1 = system: CAKI-1
SR = system: SR
HCC 2998 = system: HCC 2998

## O=C(CN1c2ccccc2Sc2ccccc21)n1cnc2ccccc21
A498
  GI50: 45.3 µM (inactive)
EKVX
  GI50: > 100 µM (inactive)
SF-268
  GI50: > 100 µM (inactive)
MDA-MB-435
  GI50: > 100 µM (inactive)
NCI-H23
  GI50: 77.3 µM (inactive)
HOP-92
  GI50: 30.6 µM (inactive)
UACC-62
  GI50: > 100 µM (inactive)
RXF 393
  GI50: > 100 µM (inactive)
OVCAR-4
  GI50: 69 µM (inactive)
COLO 205
  GI50: 92.3 µM (inactive)
SW-620
  GI50: > 100 µM (inactive)
UO-31
  GI50: 75.9 µM (inactive)
SF-539
  GI50: > 100 µM (inactive)
BT-549
  GI50: > 100 µM (inactive)
HT-29
  GI50: 73.6 µM (inactive)
SK-MEL-2
  GI50: > 100 µM (inactive)
SNB-19
  GI50: > 100 µM (inactive)
NCI/ADR-RES
  GI50: 97.5 µM (inactive)
HCT-116
  GI50: > 100 µM (inactive)
SNB-75
  GI50: > 100 µM (inactive)
MCF7
  GI50: > 100 µM (inactive)
SK-OV-3
  GI50: 47.1 µM (inactive)
SF-295
  GI50: > 100 µM (inactive)
NCI-H460
  GI50: 97.5 µM (inactive)
OVCAR-3
  GI50: 62.8 µM (inactive)
SK-MEL-5
  GI50: 56.9 µM (inactive)
Hs-578T
  GI50: > 100 µM (inactive)
HL-60
  GI50: 89.3 µM (inactive)
RPMI-8226
  GI50: 90.4 µM (inactive)
A549
  GI50: > 100 µM (inactive)
KM12
  GI50: 59.8 µM (inactive)
ACHN
  GI50: > 100 µM (inactive)
LOX IMVI
  GI50: 95.3 µM (inactive)
UACC-257
  GI50: > 100 µM (inactive)
T47D
  GI50: 49.8 µM (inactive)
HOP-62
  GI50: > 100 µM (inactive)
TK-10
  GI50: > 100 µM (inactive)
IGROV-1
  GI50: > 100 µM (inactive)
786-0
  GI50: 52.6 µM (inactive)
U-251
  GI50: 43.5 µM (inactive)
NCI-H226
  GI50: 45 µM (inactive)
M14
  GI50: 59.2 µM (inactive)
CCRF-CEM
  GI50: 73.1 µM (inactive)
HCT-15
  GI50: 99.8 µM
MDA-N
  GI50: > 100 µM (inactive)
SN12C
  GI50: > 100 µM (inactive)
K562
  GI50: 99.5 µM (inactive)
OVCAR-5
  GI50: 80 µM (inactive)
OVCAR-8
  GI50: 72.6 µM (inactive)
MOLT-4
  GI50: 51.4 µM (inactive)
SK-MEL-28
  GI50: > 100 µM (inactive)
Malme-3M
  GI50: 74.8 µM (inactive)
PC-3
  GI50: 70.6 µM (inactive)
MDA-MB-231
  GI50: 53.2 µM (inactive)
DU-145
  GI50: > 100 µM (inactive)

## COC(=O)C(=O)C(C(=O)C(=O)Nc1ccc(C)c(C)c1)c1nc2ccc([N+](=O)[O-])cc2nc1O (configuration not stated)
A498
  GI50: > 100 µM (inactive)
EKVX
  GI50: 99.5 µM (inactive)
SF-268
  GI50: > 100 µM (inactive)
MDA-MB-435
  GI50: > 100 µM (inactive)
NCI-H23
  GI50: > 100 µM (inactive)
HOP-92
  GI50: > 100 µM (inactive)
UACC-62
  GI50: > 100 µM (inactive)
RXF 393
  GI50: > 100 µM (inactive)
OVCAR-4
  GI50: > 100 µM (inactive)
SW-620
  GI50: > 100 µM (inactive)
UO-31
  GI50: 68.9 µM (inactive)
SF-539
  GI50: > 100 µM (inactive)
BT-549
  GI50: > 100 µM (inactive)
HT-29
  GI50: > 100 µM (inactive)
SK-MEL-2
  GI50: > 100 µM (inactive)
SNB-19
  GI50: 18.5 µM (inactive)
NCI/ADR-RES
  GI50: > 100 µM (inactive)
HCT-116
  GI50: > 100 µM (inactive)
SNB-75
  GI50: > 100 µM (inactive)
MCF7
  GI50: > 100 µM (inactive)
SK-OV-3
  GI50: > 100 µM (inactive)
SF-295
  GI50: > 100 µM (inactive)
NCI-H460
  GI50: > 100 µM (inactive)
OVCAR-3
  GI50: > 100 µM (inactive)
NCI-H522
  GI50: 48.4 µM (inactive)
SK-MEL-5
  GI50: > 100 µM (inactive)
Hs-578T
  GI50: > 100 µM (inactive)
HL-60
  GI50: > 100 µM (inactive)
RPMI-8226
  GI50: > 100 µM (inactive)
A549
  GI50: > 100 µM (inactive)
KM12
  GI50: > 100 µM (inactive)
ACHN
  GI50: > 100 µM (inactive)
LOX IMVI
  GI50: > 100 µM (inactive)
UACC-257
  GI50: > 100 µM (inactive)
T47D
  GI50: > 100 µM (inactive)
CAKI-1
  GI50: > 100 µM (inactive)
HOP-62
  GI50: > 100 µM (inactive)
TK-10
  GI50: > 100 µM (inactive)
IGROV-1
  GI50: > 100 µM (inactive)
786-0
  GI50: > 100 µM (inactive)
U-251
  GI50: > 100 µM (inactive)
NCI-H226
  GI50: > 100 µM (inactive)
M14
  GI50: > 100 µM (inactive)
CCRF-CEM
  GI50: > 100 µM (inactive)
HCT-15
  GI50: > 100 µM
SR
  GI50: > 100 µM (inactive)
MDA-N
  GI50: > 100 µM (inactive)
SN12C
  GI50: > 100 µM (inactive)
K562
  GI50: > 100 µM (inactive)
OVCAR-5
  GI50: > 100 µM (inactive)
OVCAR-8
  GI50: > 100 µM (inactive)
HCC 2998
  GI50: > 100 µM (inactive)
MOLT-4
  GI50: > 100 µM (inactive)
SK-MEL-28
  GI50: > 100 µM (inactive)
Malme-3M
  GI50: > 100 µM (inactive)
PC-3
  GI50: > 100 µM (inactive)
MDA-MB-231
  GI50: > 100 µM (inactive)

From ChEMBL document CHEMBL1201862, “PubChem BioAssay data set” (2004)
